Laboratory results published in US8536172B2, “Inhibitors of JNK” (Roche Palo Alto LLC, priority 2009, dated 2013).

Biological target: Human JNK2α2 (Homo sapiens (Human), UniProt P45984)
Assay: JNK assay in vitro: phosphorylation of GST-ATF2 (19-96) with [γ-33P] ATP, JNK2
Assay type: biochemical
Conditions: 1 nM enzyme, 1 μM ATF2, 8 μM ATP (Km), 30° C. 30 min
Description: JNK activity was measured by phosphorylation of GST-ATF2 (19-96) with [γ-^33P] ATP. […] Human JNK2α2 assay contains 1 nM enzyme, 1 μM ATF2, 8 μM ATP with 1 uCi [γ-^33P] ATP. Human JNK1α1 assay contains 2 nM enzyme, 1 μM ATF2, 6 μM ATP with 1 μCi [γ-^33P] ATP. Human JNK3 (Upstate Biotech #14-501M) assay contains 2 nM enzyme, 1 μM ATF2, 4 μM ATP with 1 μCi [γ-^33P] ATP. The enzyme assay was carried out in the presence or absence of several compound concentrations. JNK and compound were pre-incubated for 10 min., followed by initiation of the enzymatic reaction by adding ATP and the substrate. The reaction mixture was incubated at 30° C. for 30 min. At the end of incubation, the reaction was terminated by transferring 25 μl of the reaction mixture to 150 μl of 10% glutathione Sepharose® slurry (Amersham #27-4574-01) containing 135 mM EDTA. The reaction product was captured on the affinity resin, and washed on a filtration plate (Millipore, MABVNOB50) with phosphate buffered saline for six times to remove free radionucleotide. The incorporation of ^33P into ATF2 was quantified on a microplate scintillation counter (Packard Topcount). Compound inhibition potency on JNK was measured by IC50 value generated from ten concentration inhibition curves fitted into the 3-parameter model: % inhibition=Maximum/(1+(IC50/[Inhibitor])^slope). Data were analyzed on Microsoft Excel for parameter estimation.

Chain of Human JNK2α2 (P45984 whole entry): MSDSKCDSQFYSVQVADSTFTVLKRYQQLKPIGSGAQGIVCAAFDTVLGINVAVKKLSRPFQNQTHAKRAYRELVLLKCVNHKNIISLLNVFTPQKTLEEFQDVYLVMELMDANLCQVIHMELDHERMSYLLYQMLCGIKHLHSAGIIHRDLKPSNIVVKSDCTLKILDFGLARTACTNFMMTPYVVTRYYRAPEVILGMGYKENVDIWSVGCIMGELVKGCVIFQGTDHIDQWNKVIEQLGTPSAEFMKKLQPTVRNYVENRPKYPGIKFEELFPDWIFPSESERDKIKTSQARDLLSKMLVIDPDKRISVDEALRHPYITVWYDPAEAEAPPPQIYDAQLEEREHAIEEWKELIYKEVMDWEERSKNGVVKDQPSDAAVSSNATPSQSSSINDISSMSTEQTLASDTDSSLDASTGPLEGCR

Q: Which IC50 does the source give for `CS(=O)(=O)N[C@H]1CC[C@H](Nc2nccc(-n3ccc4c(N5CCNCC5)cccc43)n2)CC1` [Compound I-1, N-{4-[4-(4-Piperazin-1-yl-indol-1-yl)-pyrimidin-2-ylamino]-cyclohexyl}-methanesulfonamide] here?
A: The IC50 was 1430 nM.

Q: Which IC50 does the source give for `CS(=O)(=O)N[C@H]1CC[C@H](Nc2nccc(-n3ccc4c(N5CCN(S(C)(=O)=O)CC5)cccc43)n2)CC1` [Compound I-3, N-(4-{4-[4-(4-Methanesulfonyl-piperazin-1-yl)-indol-1-yl]-pyrimidin-2-ylamino}-cyclohexyl)-methanesulfonamide] here?
A: The IC50 was 182 nM.

Q: With `CS(=O)(=O)N[C@H]1CC[C@H](Nc2nccc(-n3ccc4c(N5CCN(C(N)=O)CC5)cccc43)n2)CC1` [Compound I-7, 4-{1-[2-(4-Methanesulfonylamino-cyclohexylamino)-pyrimidin-4-yl]-1H-indol-4-yl}-piperazine-1-carboxylic acid amide] as the molecule, how does the IC50 read?
A: The IC50 was 86.1 nM.

Q: With `CS(=O)(=O)N[C@H]1CC[C@H](Nc2nccc(-n3ccc4c(N5CCN(S(N)(=O)=O)CC5)cccc43)n2)CC1` [Compound I-8, 4-{1-[2-(4-Methanesulfonylamino-cyclohexylamino)-pyrimidin-4-yl]-1H-indol-4-yl}-piperazine-1-sulfonic acid amide] as the molecule, how does the IC50 read?
A: The IC50 was 82.3 nM.

Q: For `N#CCC(=O)N1CCN(c2cccc3c2ccn3-c2ccnc(N[C@H]3CC[C@H](CO)CC3)n2)CC1` [Compound I-27, 3-(4-{1-[2-(4-Hydroxymethyl-cyclohexylamino)-pyrimidin-4-yl]-1H-indol-4-yl}-piperazin-1-yl)-3-oxo-propionitrile], which IC50 is on record?
A: The IC50 was 12.8 nM.

Q: Which IC50 does the source give for `N#CCC(=O)N1CCN(c2cccc3c2ccn3-c2ccnc(N[C@H]3CC[C@H](CN4CC[C@H](O)C4)CC3)n2)CC1` [Compound I-28, 3-[4-(1-{2-[4-((S)-3-Hydroxy-pyrrolidin-1-ylmethyl)-cyclohexylamino]-pyrimidin-4-yl}-1H-indol-4-yl)-piperazin-1-yl]-3-oxo-propionitrile] here?
A: Its IC50 is 55.5 nM.

Q: For `CC(=O)N1CCN(c2cccc3c2ccn3-c2ccnc(N[C@H]3CC[C@H](CN4CC[C@@H](O)C4)CC3)n2)CC1` [Compound I-29, 1-[4-(1-{2-[4-((R)-3-Hydroxy-pyrrolidin-1-ylmethyl)-cyclohexylamino]-pyrimidin-4-yl}-1H-indol-4-yl)-piperazin-1-yl]-ethanone], which IC50 is on record?
A: Its IC50 is 525 nM.

Q: For `CCOC1CCN(C(=O)[C@H]2CC[C@H](Nc3nccc(-n4ccc5c(N6CCC(S(C)(=O)=O)CC6)cccc54)n3)CC2)CC1` [Compound I-30, (4-Ethoxy-piperidin-1-yl)-(4-{4-[4-(4-methanesulfonyl-piperidin-1-yl)-indol-1-yl]-pyrimidin-2-ylamino}-cyclohexyl)-methanone], which IC50 is on record?
A: The IC50 was 82.7 nM.

Q: `N#CCC(=O)O[C@@H]1CCC[C@H](Nc2nccc(-n3ccc4c(N5CCN(C(=O)CC#N)CC5)cccc43)n2)C1` [Compound I-33, Cyano-acetic acid (1R,3S)-3-(4-{4-[4-(2-cyano-acetyl)-piperazin-1-yl]-indol-1-yl}-pyrimidin-2-ylamino)-cyclohexyl ester] was tested. Which IC50 did it give?
A: Its IC50 is 198 nM.

Q: `N#CCC(=O)N1CCN(c2cccc3c2ccn3-c2ccnc(N[C@H]3CCC[C@H](O)C3)n2)CC1` [Compound I-34, 3-(4-{1-[2-((1S,3S)-3-Hydroxy-cyclohexylamino)-pyrimidin-4-yl]-1H-indol-4-yl}-piperazin-1-yl)-3-oxo-propionitrile] was tested. Which IC50 did it give?
A: The IC50 was 89.2 nM.

Q: Which IC50 does the source give for `N#CCC(=O)N1CCN(c2cccc3c2ccn3-c2ccnc(N[C@H]3CCC[C@@H](O)C3)n2)CC1` [Compound I-35, 3-(4-{1-[2-((1S,3R)-3-Hydroxy-cyclohexylamino)-pyrimidin-4-yl]-1H-indol-4-yl}-piperazin-1-yl)-3-oxo-propionitrile] here?
A: Its IC50 is 177 nM.

Q: Which IC50 does the source give for `N#CCC(=O)O[C@H]1CCC[C@H](Nc2nccc(-n3ccc4c(N5CCN(C(=O)CC#N)CC5)cccc43)n2)C1` [Compound I-36, Cyano-acetic acid (1S,3S)-3-(4-{4-[4-(2-cyano-acetyl)-piperazin-1-yl]-indol-1-yl}-pyrimidin-2-ylamino)-cyclohexyl ester] here?
A: Its IC50 is 168 nM.

Q: With `N#CCC(=O)N1CCN(c2cccc3c2ccn3-c2ccnc(NC3CCCCC3)n2)CC1` [Compound I-38, 3-{4-[1-(2-Cyclohexylamino-pyrimidin-4-yl)-1H-indol-4-yl]-piperazin-1-yl}-3-oxo-propionitrile] as the molecule, how does the IC50 read?
A: The IC50 was 42.8 nM.

Q: `COCCO[C@H]1CC[C@H](Nc2nccc(-n3ccc4c(N5CCN(C(C)=O)CC5)cccc43)n2)CC1` [Compound I-39, 1-[4-(1-{2-[4-(2-Methoxy-ethoxy)-cyclohexylamino]-pyrimidin-4-yl}-1H-indol-4-yl)-piperazin-1-yl]-ethanone] was tested. Which IC50 did it give?
A: Its IC50 is 406 nM.

Q: For `COCCO[C@H]1CC[C@H](Nc2nccc(-n3ccc4c(N5CCN(C(=O)CC#N)CC5)cccc43)n2)CC1` [Compound I-40, 3-[4-(1-{2-[4-(2-Methoxy-ethoxy)-cyclohexylamino]-pyrimidin-4-yl}-1H-indol-4-yl)-piperazin-1-yl]-3-oxo-propionitrile], which IC50 is on record?
A: The IC50 was 35 nM.

Q: For `CC(=O)N1CCN(c2cccc3c2ccn3-c2ccnc(N[C@H]3CC[C@H](C(C)(C)O)CC3)n2)CC1` [Compound I-43, 1-[4-(1-{2-[4-(1-Hydroxy-1-methyl-ethyl)-cyclohexylamino]-pyrimidin-4-yl}-1H-indol-4-yl)-piperazin-1-yl]-ethanone], which IC50 is on record?
A: Its IC50 is 432 nM.

Q: How did the IC50 turn out when `CS(=O)(=O)N(CCO)[C@H]1CC[C@H](Nc2nccc(-n3ccc4c(N5CCN(C(=O)CC#N)CC5)cccc43)n2)CC1` [Compound I-44, N-[4-(4-{4-[4-(2-Cyano-acetyl)-piperazin-1-yl]-indol-1-yl}-pyrimidin-2-ylamino)-cyclohexyl]-N-(2-hydroxy-ethyl)-methanesulfonamide] was run?
A: The IC50 was 19.2 nM.

Q: With `CC(C)(O)[C@H]1CC[C@H](Nc2nccc(-n3ccc4c(N5CCN(C(=O)CC#N)CC5)cccc43)n2)CC1` [Compound I-45, 3-[4-(1-{2-[4-(1-Hydroxy-1-methyl-ethyl)-cyclohexylamino]-pyrimidin-4-yl}-1H-indol-4-yl)-piperazin-1-yl]-3-oxo-propionitrile] as the molecule, how does the IC50 read?
A: Its IC50 is 33.4 nM.

Q: How did the IC50 turn out when `CCN1CCN(C(=O)[C@H]2CC[C@H](Nc3nccc(-n4ccc5c(N6CCC(S(C)(=O)=O)CC6)cccc54)n3)CC2)CC1` [Compound I-46, (4-Ethyl-piperazin-1-yl)-(4-{4-[4-(4-methanesulfonyl-piperidin-1-yl)-indol-1-yl]-pyrimidin-2-ylamino}-cyclohexyl)-methanone] was run?
A: The IC50 was 36 nM.

Q: For `CS(=O)(=O)C1CCN(c2cccc3c2ccn3-c2ccnc(N[C@H]3CC[C@H](C(=O)N4CCN(C5CC5)CC4)CC3)n2)CC1` [Compound I-47, (4-Cyclopropyl-piperazin-1-yl)-(4-{4-[4-(4-methanesulfonyl-piperidin-1-yl)-indol-1-yl]-pyrimidin-2-ylamino}-cyclohexyl)-methanone], which IC50 is on record?
A: The IC50 was 29.6 nM.

Q: `CC(C)(C)N1CCN(C(=O)[C@H]2CC[C@H](Nc3nccc(-n4ccc5c(N6CCC(S(C)(=O)=O)CC6)cccc54)n3)CC2)CC1` [Compound I-48, (4-tert-Butyl-piperazin-1-yl)-(4-{4-[4-(4-methanesulfonyl-piperidin-1-yl)-indol-1-yl]-pyrimidin-2-ylamino}-cyclohexyl)-methanone] was tested. Which IC50 did it give?
A: Its IC50 is 54.5 nM.

Q: With `CS(=O)(=O)C1CCN(c2cccc3c2ccn3-c2ccnc(N[C@H]3CC[C@H](C(=O)N4CCN(C5CCC5)CC4)CC3)n2)CC1` [Compound I-49, (4-Cyclobutyl-piperazin-1-yl)-(4-{4-[4-(4-methanesulfonyl-piperidin-1-yl)-indol-1-yl]-pyrimidin-2-ylamino}-cyclohexyl)-methanone] as the molecule, how does the IC50 read?
A: The IC50 was 59.8 nM.

Q: `CS(=O)(=O)C1CCN(c2cccc3c2ccn3-c2ccnc(N[C@H]3CC[C@H](C(=O)N4CCN5CCCCC5C4)CC3)n2)CC1` (stereo partly drawn) [Compound I-50, (4-{4-[4-(4-Methanesulfonyl-piperidin-1-yl)-indol-1-yl]-pyrimidin-2-ylamino}-cyclohexyl)-(octahydro-pyrido[1,2-a]pyrazin-2-yl)-methanone] was tested. Which IC50 did it give?
A: Its IC50 is 15.6 nM.

Q: With `CS(=O)(=O)C1CCN(c2cccc3c2ccn3-c2ccnc(N[C@H]3CC[C@H](C(=O)N4CCN5CCCC5C4)CC3)n2)CC1` (stereo partly drawn) [Compound I-52, (Hexahydro-pyrrolo[1,2-a]pyrazin-2-yl)-(4-{4-[4-(4-methanesulfonyl-piperidin-1-yl)-indol-1-yl]-pyrimidin-2-ylamino}-cyclohexyl)-methanone] as the molecule, how does the IC50 read?
A: The IC50 was 21.8 nM.

Q: With `CS(=O)(=O)C1CCN(c2cccc3c2ccn3-c2ccnc(N[C@H]3CC[C@H](C(=O)N4CCn5ccnc5C4)CC3)n2)CC1` [Compound I-54, (5,6-Dihydro-8H-imidazo[1,2-a]pyrazin-7-yl)-(4-{4-[4-(4-methanesulfonyl-piperidin-1-yl)-indol-1-yl]-pyrimidin-2-ylamino}-cyclohexyl)-methanone] as the molecule, how does the IC50 read?
A: The IC50 was 15.2 nM.

Q: `N#CCC(=O)N1CCN(c2cccc3c2ccn3-c2ccnc(N[C@H]3CC[C@@H](O)C3)n2)CC1` [Compound I-58, 3-(4-{1-[2-((1S,3R)-3-Hydroxy-cyclopentylamino)-pyrimidin-4-yl]-1H-indol-4-yl}-piperazin-1-yl)-3-oxo-propionitrile] was tested. Which IC50 did it give?
A: The IC50 was 806 nM.

Q: For `N#CCC(=O)N1CCN(c2cccc3c2ccn3-c2ccnc(N[C@@H]3CC[C@H](O)C3)n2)CC1` [Compound I-59, 3-(4-{1-[2-((1R,3S)-3-Hydroxy-cyclopentylamino)-pyrimidin-4-yl]-1H-indol-4-yl}-piperazin-1-yl)-3-oxo-propionitrile], which IC50 is on record?
A: The IC50 was 570 nM.
